Test results: patent publication US12643887B2, “Heterocyclic derivatives with cardiomyocyte proliferation activity for treatment of heart diseases” (Tongji University, priority 2019, dated 2026)

Tests used:
[1] = biological target: T1, human CK2a2 (CSNK2a2) (Homo sapiens, UniProt P19784); assay: CK2a2 (CSNK2a2) enzyme assay (ADP-Glo); type: biochemical; details: ADP-Glo, ATP 15 μM; read-out: CK2 alpha 2 IC50
T1 construct: Recombinant human CK2a2 (CSNK2a2) (full length); GST (N); purchased SignalChem C71-10G; host or cells: Sf9 insect cells
Description: 8. CK2a2 (CSNK2a2) Enzyme Assay
The ability of compounds to inhibit human CK2a2 (CSNK2a2) kinase activities was determined using a commercially available ADP-Glo™ Kinase Assay kit (Promega, Cat #V9102) according to the manufacturer's protocol.
Recombinant human CK2a2 (CSNK2a2) (full length) (expressed in Sf9 insect cells with an N-terminal GST tag) was purchased from SignalChem (Cat #C71-10G). CK2 substrate (sequence: […]) was purchased from SignalChem (Cat #C08-58). This assay, run in a 384-well plate format, is a generic method for measuring kinase activities using an ADP-Glo Kinase Assay Kit. The basic assay procedure involves two steps: (1) Enzymatic step: inhibitors are incubated with the kinase and then ATP (included in the ADP-Glo Kinase Assay Kit) and the MBP protein are added to start the enzymatic reaction; (2) Detection step: after the kinase reaction, first ADP-Glo™ Reagent is added to terminate the kinase reaction and deplete the remaining ATP. Second, the Kinase Detection Reagent is added to simultaneously convert ADP to ATP and allow the newly synthesized ATP to be measured using a luciferase/luciferin reaction. The light generated is measured using a luminometer.
(§1) Briefly, CK2a2 (CSNK2a2) (7 nM) in the enzymatic buffer solutions (40 mM Tris, pH 7.5, 20 mM MgCl2, 0.1 mg/ml BSA, 50 μM DTT) were mixed with various concentrations of inhibitors (dissolved in 100% DMSO). These solutions were incubated for 30 minutes at 25° C., and subsequently a mixture of substrate peptide and ATP was added with the final peptide and ATP concentrations at 0.04 mg/ml and 15 μM, respectively. The final reaction mixture of enzyme-substrate-ATP-compound was incubated for 90 minutes at 25° C.
(§2) Afterwards ADP-Glo™ Reagent was added and the mixture was incubated at 25° C. for 60 minutes. Then Kinase Detection Reagent was added, and the final mixture was incubated at 25° C. for 60 minutes. The luminescence signal of the final solution was measured on an Envision instrument (PerkinElmer). The percent (%) inhibition at each concentration of a compound is calculated relative to the luminescence signal in the Max and Min control wells contained within each assay plate. […] The concentrations and percent inhibition values for a test compound are plotted and the concentration of the compound required to achieve 50% inhibition (IC50) is determined with a four-parameter logistic dose response equation.

[2] = biological target: T2, human CIT (Homo sapiens, UniProt O14578); assay: CIT enzyme assay (ADP-Glo); type: biochemical; details: ADP-Glo, ATP 5 μM; read-out: CIT IC50
T2 construct: Recombinant human CIT (1-499); GST (N); purchased SignalChem C52-11G; host or cells: Sf9 insect cells
Description: The ability of compounds to inhibit human CIT kinase activities was determined using a commercially available ADP-Glo™ Kinase Assay kit (Promega, Cat #V9102) according to the manufacturer's protocol.
Recombinant human CIT (1-499) (expressed in Sf9 insect cells with an N-terminal GST tag) was purchased from SignalChem (Cat #C52-11G). Recombinant full length human MBP (expressed in E. Coli cells with an N-terminal GST tag) was purchased from SignalChem (Cat #M42-54G). This assay, run in a 384-well plate format, is a generic method for measuring kinase activities using an ADP-Glo Kinase Assay Kit. The basic assay procedure involves two steps: (1) Enzymatic step: inhibitors are incubated with the kinase and then ATP (included in the ADP-Glo Kinase Assay Kit) and the MBP protein are added to start the enzymatic reaction; (2) Detection step: after the kinase reaction, first ADP-Glo™ Reagent is added to terminate the kinase reaction and deplete the remaining ATP. Second, the Kinase Detection Reagent is added to simultaneously convert ADP to ATP and allow the newly synthesized ATP to be measured using a luciferase/luciferin reaction. The light generated is measured using a luminometer.
as §1, with “CIT (20” for “CK2a2 (CSNK2a2) (7”, “0.05” for “0.04”, “5” for “15”
as §2

T1 sequence (P19784 whole entry): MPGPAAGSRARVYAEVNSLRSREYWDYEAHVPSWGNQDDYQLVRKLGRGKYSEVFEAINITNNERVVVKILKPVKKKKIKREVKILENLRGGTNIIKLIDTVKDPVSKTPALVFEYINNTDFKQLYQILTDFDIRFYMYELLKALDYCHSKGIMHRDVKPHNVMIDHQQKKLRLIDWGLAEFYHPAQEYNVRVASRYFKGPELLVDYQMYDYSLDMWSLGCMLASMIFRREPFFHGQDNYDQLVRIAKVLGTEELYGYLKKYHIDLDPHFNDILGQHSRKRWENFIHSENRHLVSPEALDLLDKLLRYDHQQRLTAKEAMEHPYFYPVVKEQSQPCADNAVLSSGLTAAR
T2 sequence (O14578 1-499): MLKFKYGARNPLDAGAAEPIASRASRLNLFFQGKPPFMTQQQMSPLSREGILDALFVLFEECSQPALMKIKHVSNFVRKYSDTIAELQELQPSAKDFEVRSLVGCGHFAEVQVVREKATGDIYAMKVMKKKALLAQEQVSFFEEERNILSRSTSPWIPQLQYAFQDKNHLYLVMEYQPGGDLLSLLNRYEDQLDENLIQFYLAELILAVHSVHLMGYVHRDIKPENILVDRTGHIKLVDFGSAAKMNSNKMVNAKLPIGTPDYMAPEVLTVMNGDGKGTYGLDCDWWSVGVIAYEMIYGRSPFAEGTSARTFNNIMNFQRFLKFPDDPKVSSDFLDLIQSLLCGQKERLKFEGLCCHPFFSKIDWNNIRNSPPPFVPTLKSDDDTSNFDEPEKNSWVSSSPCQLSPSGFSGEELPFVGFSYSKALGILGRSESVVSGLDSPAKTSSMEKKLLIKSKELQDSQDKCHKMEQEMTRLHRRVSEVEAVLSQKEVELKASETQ

| Compound | IC50 [1] | IC50 [2] |
| --- | --- | --- |
| O=C1NC(N(CCO)c2ccccc2)=N/C1=C\c1ccc2c(c1)OCO2 [Example 13, (Z)-5-(benzo[d][1,3]dioxol-5-ylmethylene)-2-((2-hydroxyethyl)(phenyl)amino)-3,5-dihydro-4H-imidazol-4-one] | 100 to 1000 nM | > 10000 nM |
| CN(C1=N/C(=C\c2ccc3c(c2)OCO3)C(=O)N1)c1ccccc1 [Example 1, (Z)-5-(benzo[d][1,3]dioxol-5-ylmethylene)-2-(methyl(phenyl)amino)-3,5-dihydro-4H-imidazol-4-one] | 100 to 1000 nM | > 10000 nM |
| O=C1/C(=C/c2ccc3c(c2)OCO3)N=C(N(Cc2ccccc2)c2ccccc2)N1Cc1ccccc1 [Example 2, (Z)-5-(benzo[d][1,3]dioxol-5-ylmethylene)-3-benzyl-2-(benzyl(phenyl)amino)-3,5-dihydro-4H-imidazol-4-one] | – | > 10000 nM |
| NC1=N/C(=C\c2ccc3ncsc3c2)C(=O)N1 [Example 103, (Z)-2-amino-5-(benzo[d]thiazol-6-ylmethylene)-3,5-dihydro-4H-imidazol-4-one] | 100 to 1000 nM | 100 to 1000 nM |
| O=C1NC(Nc2ccccc2)=N/C1=C\c1ccc2occc2c1 [Example 52, (Z)-5-(benzofuran-5-ylmethylene)-2-(phenylamino)-3,5-dihydro-4H-imidazol-4-one] | > 10000 nM | > 10000 nM |
| O=C1NC(Nc2ccc(Cl)cc2)=N/C1=C\c1ccc2ncsc2c1 [Example 40, (Z)-5-(benzo[d]thiazol-6-ylmethylene)-2-((4-chlorophenyl)amino)-3,5-dihydro-4H-imidazol-4-one] | > 10000 nM | 100 to 1000 nM |
| Cn1cnc2ccc(/C=C3\N=C(Nc4ccccc4)NC3=O)cc21 [Example 46, (Z)-5-((1-methyl-1H-benzo[d]imidazol-6-yl)methylene)-2-(phenylamino)-3,5-dihydro-4H-imidazol-4-one] | < 100 nM | 100 to 1000 nM |
| O=C1NC(N(Cc2ccccc2)c2ccccc2)=N/C1=C\c1ccc2c(c1)OCO2 [Example 22, (Z)-5-(benzo[d][1,3]dioxol-5-ylmethylene)-2-(benzyl(phenyl)amino)-3,5-dihydro-4H-imidazol-4-one] | > 10000 nM | > 10000 nM |
| O=C1NC(Nc2ccccc2)=N/C1=C\c1ccc2ncccc2c1 [Example 53, (Z)-2-(phenylamino)-5-(quinolin-6-ylmethylene)-3,5-dihydro-4H-imidazol-4-one] | > 10000 nM | > 10000 nM |
| CN(CC1CC1)C1=N/C(=C\c2ccc3c(c2)OCO3)C(=O)N1 [Example 11, (Z)-5-(benzo[d][1,3]dioxol-5-ylmethylene)-2-((cyclopropylmethyl)(methyl)amino)-3,5-dihydro-4H-imidazol-4-one] | 100 to 1000 nM | > 10000 nM |
| CN(C1=N/C(=C\c2ccc3c(c2)OCO3)C(=O)N1)c1ccc2ncsc2c1 [Example 70, (Z)-5-(benzo[d][1,3]dioxol-5-ylmethylene)-2-(benzo[d]thiazol-6-yl(methyl)amino)-3,5-dihydro-4H-imidazol-4-one] | 100 to 1000 nM | > 10000 nM |
| CN(Cc1ccccc1)C1=N/C(=C\c2ccc3c(c2)OCO3)C(=O)N1 [Example 23, (Z)-5-(benzo[d][1,3]dioxol-5-ylmethylene)-2-(benzyl(methyl)amino)-3,5-dihydro-4H-imidazol-4-one] | > 10000 nM | > 10000 nM |
| O=C1NC(Nc2ccccc2)=N/C1=C\c1ccc2ncsc2c1 [Example 6, (Z)-5-(benzo[d]thiazol-6-ylmethylene)-2-(phenylamino)-3,5-dihydro-4H-imidazol-4-one] | < 100 nM | 100 to 1000 nM |
| O=C1NC(Nc2ccc3ncsc3c2)=N/C1=C\c1ccc2ncsc2c1 [Example 48, (Z)-2-(benzo[d]thiazol-6-ylamino)-5-(benzo[d]thiazol-6-ylmethylene)-3,5-dihydro-4H-imidazol-4-one] | < 100 nM | 100 to 1000 nM |
| O=C1NC(Nc2ccc3ncsc3c2)=N/C1=C\c1ccc2c(c1)OCO2 [Example 47, (Z)-5-(benzo[d][1,3]dioxol-5-ylmethylene)-2-(benzo[d]thiazol-6-ylamino)-3,5-dihydro-4H-imidazol-4-one] | > 10000 nM | > 10000 nM |
| O=C1/C(=C/c2ccc3ncsc3c2)N=C(N(Cc2ccccc2)c2ccccc2)N1Cc1ccccc1 [Example 42, (Z)-5-(benzo[d]thiazol-6-ylmethylene)-3-benzyl-2-(benzyl(phenyl)amino)-3,5-dihydro-4H-imidazol-4-one] | > 10000 nM | > 10000 nM |
| COc1ccccc1N(C)C1=N/C(=C\c2ccc3c(c2)OCO3)C(=O)N1 [Example 21, (Z)-5-(benzo[d][1,3]dioxol-5-ylmethylene)-2-((2-methoxyphenyl)(methyl)amino)-3,5-dihydro-4H-imidazol-4-one] | 1000 to 10000 nM | > 10000 nM |
| O=C1NC(Nc2ccc3nccnc3c2)=N/C1=C\c1ccc2ncsc2c1 [Example 82, (Z)-5-(benzo[d]thiazol-6-ylmethylene)-2-(quinoxalin-6-ylamino)-3,5-dihydro-4H-imidazol-4-one] | < 100 nM | > 10000 nM |
| CN(C1=N/C(=C\c2ccc3ncsc3c2)C(=O)N1)c1ccc2ncsc2c1 [Example 83, (Z)-2-(benzo[d]thiazol-6-yl(methyl)amino)-5-(benzo[d]thiazol-6-ylmethylene)-3,5-dihydro-4H-imidazol-4-one] | 100 to 1000 nM | 100 to 1000 nM |
| CC(C)NC1=N/C(=C\c2ccc3ncsc3c2)C(=O)N1C [Example 45, (Z)-5-(benzo[d]thiazol-6-ylmethylene)-2-(isopropylamino)-3-methyl-3,5-dihydro-4H-imidazol-4-one] | 1000 to 10000 nM | 100 to 1000 nM |
| COc1ccc(N(C)C2=N/C(=C\c3ccc4ncsc4c3)C(=O)N2)cc1 [Example 38, (Z)-5-(benzo[d]thiazol-6-ylmethylene)-2-((4-methoxyphenyl)(methyl)amino)-3,5-dihydro-4H-imidazol-4-one] | 100 to 1000 nM | 1000 to 10000 nM |
| CN(C1=N/C(=C\c2ccc3c(c2)OCCO3)C(=O)N1)c1ccc2ncsc2c1 [Example 84, (Z)-2-(benzo[d]thiazol-6-yl(methyl)amino)-5-((2,3-dihydrobenzo[b][1,4]dioxin-6-yl)methylene)-3,5-dihydro-4H-imidazol-4-one] | 100 to 1000 nM | > 10000 nM |
| CN(C1=N/C(=C\c2ccc3ncsc3c2)C(=O)N1)c1ccc(N)cc1 [Example 44, (Z)-2-((4-aminophenyl)(methyl)amino)-5-(benzo[d]thiazol-6-ylmethylene)-3,5-dihydro-4H-imidazol-4-one] | 100 to 1000 nM | 100 to 1000 nM |
| CN(C1=N/C(=C\c2ccc3ncsc3c2)C(=O)N1)c1ccccc1 [Example 7, (Z)-5-(benzo[d]thiazol-6-ylmethylene)-2-(methyl(phenyl)amino)-3,5-dihydro-4H-imidazol-4-one] | 100 to 1000 nM | 100 to 1000 nM |
| CN(C1=N/C(=C\c2ccc3c(c2)OCO3)C(=O)N1)c1ccc(N)cc1 [Example 37, (Z)-2-((4-aminophenyl)(methyl)amino)-5-(benzo[d][1,3]dioxol-5-ylmethylene)-3,5-dihydro-4H-imidazol-4-one] | 100 to 1000 nM | > 10000 nM |
